Several values for one entry are separate records, joined by “and”; a condition that tells them apart may be missing. Equal entries are not always repeated. Structures can show the parent of a compound that is named as a salt. Where two headings read alike, the source gives them in different places.
How the values were obtained:
Top1 [1] = target: T1, Top1 (Homo sapiens, UniProt P11387); conditions: background statement; cited from earlier work
T1 sequence (P11387 1-765): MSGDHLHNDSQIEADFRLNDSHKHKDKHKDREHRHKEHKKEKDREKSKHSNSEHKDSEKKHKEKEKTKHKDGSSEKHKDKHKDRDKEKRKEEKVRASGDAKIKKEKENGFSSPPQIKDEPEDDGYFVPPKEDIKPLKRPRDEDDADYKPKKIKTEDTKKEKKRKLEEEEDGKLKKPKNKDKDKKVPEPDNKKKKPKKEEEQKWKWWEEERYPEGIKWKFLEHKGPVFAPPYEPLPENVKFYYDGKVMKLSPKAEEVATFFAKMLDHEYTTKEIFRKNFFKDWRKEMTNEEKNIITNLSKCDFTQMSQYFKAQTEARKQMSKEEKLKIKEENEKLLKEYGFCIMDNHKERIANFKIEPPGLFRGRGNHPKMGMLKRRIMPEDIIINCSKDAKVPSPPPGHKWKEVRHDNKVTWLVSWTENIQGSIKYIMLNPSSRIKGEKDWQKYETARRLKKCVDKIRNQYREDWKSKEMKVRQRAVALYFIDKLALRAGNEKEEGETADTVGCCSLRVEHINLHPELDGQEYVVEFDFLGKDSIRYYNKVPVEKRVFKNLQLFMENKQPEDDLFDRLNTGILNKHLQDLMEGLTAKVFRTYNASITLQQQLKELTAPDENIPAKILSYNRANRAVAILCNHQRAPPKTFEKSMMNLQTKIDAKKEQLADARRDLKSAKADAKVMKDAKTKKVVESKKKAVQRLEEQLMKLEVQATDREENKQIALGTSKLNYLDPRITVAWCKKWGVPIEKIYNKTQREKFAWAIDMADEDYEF

Top1 [2] = target: T1, Top1; assay: Top1-mediated DNA cleavage assay; format: biochemical; conditions: score based on the activity of 1 μM 1 (camptothecin); tested at 0.1, 1, 10, 100 μM
Method: Approximately 2 nM radiolabeled DNA substrate was incubated with recombinant Top in 20 μL of reaction buffer [10 mM Tris-HCl (pH 7.5), 50 mM KCl, 5 mM MgCl2, 0.1 mM EDTA, and 15 μg/mL BSA] at 25° C. for 20 min in the presence of various concentrations of test compounds. […] Aliquots of each reaction mixture were subjected to 20% denaturing PAGE.
The Top1-mediated DNA cleavage assay was used to measure Top1 inhibitory activity. This assay measures the ability of the compound to stabilize DNA cleavage in a 3′-[^32P]-labeled DNA substrate via Top1 poisoning.

Renal, SN12C = assay: NCI-60 five-dose cytotoxicity assay, SN12C; conditions: Homo sapiens, read-out: Cytotoxicity GI50, Renal, SN12C
Method: (§1) The new indenoisoquinolines were evaluated for cancer cell growth inhibitory activities. The National Cancer Institute's NCI-60 cytotoxicity assay measures the ability of test agents to inhibit the growth of approximately 60 different cancer cell lines. In the initial single-dose assay, cells are treated with a 10 μM dose of test agent. The growth of treated cells versus untreated cells is then compared. If a test agent induces a sufficiently low mean growth percent, it is promoted to five-dose testing to determine a mean graph midpoint (MGM) GI50 value. In five-dose testing, cells are treated with test agent concentrations ranging from 10^−8 to 10^−4 M. The concentration required to achieve 50% growth inhibition in a particular cell line is calculated. In situations in which this value is greater than 100 μM or less than 0.01 μM, it is recorded as 100 μM and 0.01 μM, respectively. The values for each of the tested cell lines are averaged to obtain a mean graph midpoint (MGM) GI50 value. MGM GI50 values are often, but not always, determined from two separate rounds (Table 1).

Lung, HOP-62 = assay: NCI-60 five-dose cytotoxicity assay, HOP-62; conditions: Homo sapiens, HOP-62, read-out: Cytotoxicity GI50, Lung, HOP-62
Method: as §1

Breast, MCF7 = assay: NCI-60 five-dose cytotoxicity assay, MCF7; conditions: Homo sapiens, MCF7, read-out: Cytotoxicity GI50, Breast, MCF7
Method: as §1

Melanoma UACC-62 = assay: NCI-60 five-dose cytotoxicity assay, UACC-62; conditions: Homo sapiens, UACC-62, read-out: Cytotoxicity GI50, Melanoma UACC-62
Method: as §1

recombinant human TDP2 = target: T2, recombinant human TDP2 (Homo sapiens, UniProt O95551); assay: Recombinant TDP2 assay; format: biochemical; conditions: recombinant human TDP2, gel-based; read-out: TDP2: IC50 values for the inhibition of TDP2
T2 sequence (O95551 1-362): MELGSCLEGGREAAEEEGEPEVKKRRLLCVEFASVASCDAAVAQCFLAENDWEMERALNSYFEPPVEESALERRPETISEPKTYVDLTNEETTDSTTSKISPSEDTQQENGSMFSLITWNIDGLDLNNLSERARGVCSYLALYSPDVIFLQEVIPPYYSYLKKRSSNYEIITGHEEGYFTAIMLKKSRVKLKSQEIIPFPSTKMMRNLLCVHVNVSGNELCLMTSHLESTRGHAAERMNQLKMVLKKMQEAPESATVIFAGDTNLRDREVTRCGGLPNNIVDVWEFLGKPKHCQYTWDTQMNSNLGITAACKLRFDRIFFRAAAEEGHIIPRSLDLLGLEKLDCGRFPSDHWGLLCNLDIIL
Source text: Reactions were terminated and treated similarly to recombinant TDP1 reactions.
TDP2, as opposed to TDP1, cleaves the phosphotyrosyl linkage in 5′-phosphotyrosyl-DNA oligonucleotides.

[3] = tested on: 60 human cancer cell lines; assay: NCI-60 single-dose cytotoxicity assay; format: cell-based; conditions: mean-graph midpoint of percent growth of 60 human cancer cell lines, 10 μM drug, 48 h, relative to no-drug control and time zero
Method: as §1

Colon, HCT-116 = assay: NCI-60 five-dose cytotoxicity assay, HCT-116; conditions: Homo sapiens, HCT-116, read-out: Cytotoxicity GI50, Colon, HCT-116
Method: as §1

Ovarian, OVCAR-3 = assay: NCI-60 five-dose cytotoxicity assay, OVCAR-3; conditions: Homo sapiens, OVCAR-3, read-out: Cytotoxicity GI50, Ovarian, OVCAR-3
Method: as §1

recombinant TDP1 = recombinant TDP1 (Homo sapiens, UniProt Q9NUW8); assay: Recombinant TDP1 assay; format: biochemical; conditions: recombinant TDP1, gel-based; read-out: TDP1: IC50 values for the inhibition of TDP1
Method: A 5′-[^32P]-labeled single-stranded DNA oligonucleotide containing a 3′-phosphotyrosine (N14Y) was incubated at 1 nM with 10 pM recombinant TDP1 in the absence or presence of inhibitor for 15 min at room temperature in the LMP1 assay buffer containing 50 mM Tris HCl, pH 7.5, 80 mM KCl, 2 mM EDTA, 1 mM DTT, 40 μg/mL BSA, and 0.01% Tween-20^18. […] Gels were dried and exposed to a PhosphorImager screen (GE Healthcare). Gel images were scanned using a Typhoon 8600 (GE Healthcare), and densitometry analyses were performed using ImageQuant software (GE Healthcare).
TDP1 is involved in the repair of DNA damage that results from the action of Top1 poisons, which induce the formation of DNA-protein adducts that include a 3′-phosphotyrosyl linkage. The TDP1 inhibition assay assesses a test agent's ability to inhibit the enzyme-induced cleavage of a 5′-^32P, 3′-phosphotyrosyl-DNA oligonucleotide, called N14Y. Cleavage of the phosphodiester bond between the 3′-phosphate and tyrosine releases […] from the DNA oligonucleotide. The enzyme-processed DNA oligonucleotide lacking its 3′-phosphotyrosyl moiety is designated N14P. A schematic representation of the assay and a representative gel are shown in FIG. 2, and the TDP1 screening results are listed in Table 1.

[4] = tested on: approximately 60 different cancer cell lines; assay: NCI-60 five-dose cytotoxicity assay, mean graph midpoint; format: cell-based; conditions: Homo sapiens, read-out: MGM: mean graph midpoint of growth inhibition (GI50)
Method: as §1

Prostate, DU-145 = assay: NCI-60 five-dose cytotoxicity assay, DU-145; conditions: Homo sapiens, DU-145, read-out: Cytotoxicity GI50, Prostate, DU-145
Method: as §1

CNS, SF-539 = assay: NCI-60 five-dose cytotoxicity assay, SF-539; conditions: Homo sapiens, CNSSF-539, read-out: Cytotoxicity GI50, CNS, SF-539
Method: as §1

[5] = 5 dose assay, 10^−8-10^−4 M, average over tested cell lines

recombinant TDP1, sequence (Q9NUW8 whole entry, species assumed): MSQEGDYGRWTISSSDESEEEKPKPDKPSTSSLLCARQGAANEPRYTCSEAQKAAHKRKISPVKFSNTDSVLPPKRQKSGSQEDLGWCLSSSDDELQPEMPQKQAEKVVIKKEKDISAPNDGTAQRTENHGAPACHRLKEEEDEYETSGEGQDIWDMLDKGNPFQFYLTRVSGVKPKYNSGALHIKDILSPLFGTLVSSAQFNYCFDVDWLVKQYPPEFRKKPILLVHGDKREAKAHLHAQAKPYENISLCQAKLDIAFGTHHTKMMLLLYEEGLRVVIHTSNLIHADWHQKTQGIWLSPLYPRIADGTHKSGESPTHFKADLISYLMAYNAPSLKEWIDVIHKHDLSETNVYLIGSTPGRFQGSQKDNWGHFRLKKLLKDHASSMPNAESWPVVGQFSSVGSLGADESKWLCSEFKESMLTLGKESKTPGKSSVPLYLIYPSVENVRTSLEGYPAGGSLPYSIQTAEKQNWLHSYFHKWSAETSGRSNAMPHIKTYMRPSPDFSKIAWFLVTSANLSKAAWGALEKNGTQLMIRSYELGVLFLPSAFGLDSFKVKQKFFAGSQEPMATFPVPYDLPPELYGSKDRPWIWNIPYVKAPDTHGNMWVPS

| SMILES | Top1 inhibitory activity (Top1 [1]) | Top 1: compound-induced DNA cleavage due to Top1 poisoning (Top1 [2]) | GI50 (Renal, SN12C) [nM] | GI50 (Lung, HOP-62) [nM] | GI50 (Breast, MCF7) [nM] | GI50 (Melanoma UACC-62) [nM] | IC50 (recombinant human TDP2) [µM] | melting point | activity at 10 µM [3] [%] | GI50 (Colon, HCT-116) [nM] | GI50 (Ovarian, OVCAR-3) [nM] | IC50 (recombinant TDP1) | GI50 [4, 5] [nM] | GI50 (Prostate, DU-145) [nM] | GI50 (CNS, SF-539) [nM] | GI50 [4] [nM] | Mean Growth % [3] [%] |
| --- | --- | --- | --- | --- | --- | --- | --- | --- | --- | --- | --- | --- | --- | --- | --- | --- | --- |
| O=C1c2ccccc2-c2c1c1ccccc1c(=O)n2CCCNCCCNCCCn1c2c(c3ccccc3c1=O)C(=O)c1ccccc1-2 [Compound 5] | potent |  |  |  |  |  |  |  |  |  |  |  |  |  |  |  |  |
| CN(C)CCCn1c2c(c3cnccc3c1=O)C(=O)c1ccccc1-2 [Compound 45, 2-Aza-5,6-dihydro-6-(3-(dimethylamino)propyl)-5,11-dioxo-indeno[1,2-c]isoquinoline] |  | ++ (++, between 50 and 75% activity) | 288 | 398 | 245 | 309 | 37 | 177 to 178 °C | -8.83 | 245 | 1100 | 63 µM | 437 | 490 |  |  |  |
| CN(C)CCCn1c2c(c3cccnc3c1=O)C(=O)c1ccccc1-2 [Compound 47, 4-Aza-5,6-dihydro-6-(3-(dimethylamino)propyl)-5,11-dioxo-indeno[1,2-c]isoquinoline] |  | +++ (+++, between 75 and 95% activity) | 1120 |  | 363 | 1290 | > 111 | 183 to 184 °C | 5.45 | 437 | 2400 | ~111 µM | 1260 | 1910 |  |  |  |
| NCCCn1c2c(c3cccnc3c1=O)C(=O)c1ccccc1-2 [Compound 60, 6-(3-Aminopropyl)-4-aza-5,6-dihydro-5,11-dioxo-indeno[1,2-c]isoquinoline Dihydrochloride] |  | ++ (++, between 50 and 75% activity) | 1120 | 1450 | 417 | 1350 | > 111 |  | 12.2 | 537 | 2290 | 60 µM and > 111 µM | 1510 | 1910 |  |  |  |
| CC[C@@]1(O)C(=O)OCc2c1cc1n(c2=O)Cc2cc3ccccc3nc2-1 [Compound 1, camptothecin, reference compound] |  |  | 20 | 10 | 10 | 10 |  |  |  | 30 | 220 |  |  | 10 | 10 | 40.5 |  |
| O=C1c2ccccc2-c2c1c1ncccc1c(=O)n2CCCn1ccnc1 [Compound 40, 1-Aza-5,6-dihydro-6-(3-(1H-imidazol-1-yl)propyl)-5,11-dioxo-indeno[1,2-c]isoquinoline] |  | ++ (++, between 50 and 75% activity) |  |  |  |  | > 111 | 242 to 243 °C |  |  |  | > 111 µM |  |  |  |  | 83.6 |
| CN(C)CCCn1c2c(c3ccncc3c1=O)C(=O)c1ccccc1-2 [Compound 46, 3-Aza-5,6-dihydro-6-(3-(dimethylamino)propyl)-5,11-dioxo-11H-indeno[1,2-c]isoquinoline] |  | ++ (++, between 50 and 75% activity) |  |  |  |  |  | 168 to 170 °C |  | 380 | 2000 |  | 977 |  |  |  |  |
| O=C1c2ccccc2-c2c1c1ncccc1c(=O)n2C[C@H](O)CO [Compound 48, (2′S)-1-Aza-5,6-dihydro-6-(2′,3′-dihydroxypropyl)-5,11-dioxo-indeno[1,2-c]isoquinoline] |  | + (+, between 20 and 50%activity) |  |  |  |  | > 111 | 245 to 250 °C (dec.) |  |  |  | > 111 µM |  |  |  |  | 100 |
| O=C1c2ccccc2-c2c1c1cnccc1c(=O)n2C[C@H](O)CO [Compound 49, (2′S)-2-Aza-5,6-dihydro-6-(2′,3′-dihydroxypropyl)-5,11-dioxo-indeno[1,2-c]isoquinoline] |  | + (+, between 20 and 50%activity) |  |  |  |  | > 111 | 229 to 232 °C |  |  |  | > 111 µM |  |  |  |  | 85.5 |
| O=C1c2ccccc2-c2c1c1cnccc1c(=O)n2CCCn1ccnc1 [Compound 41, 2-Aza-5,6-dihydro-6-(3-(1H-imidazol-1-yl)propyl)-5,11-dioxo-indeno[1,2-c]isoquinoline] |  | ++ (++, between 50 and 75% activity) |  |  |  |  | > 111 | 274 to 275 °C |  |  |  | > 111 µM |  |  |  |  | 67.8 |
